Results from patent US20260297542A1, “HERBICIDE RESISTANT PLANTS” (SYNGENTA CROP PROTECTION AG, priority 2023, published 2026).
Numbering of substitutions follows the chain as printed.

What was measured:
Experiment in all cases: E. coli hemG growth inhibition by herbicide, AtPPO1 variant
Type in all cases: cell-based
Settings in all cases: read-out: percentage growth inhibition
AtPPO1 K173H = target: T1, AtPPO1 K173H (Arabidopsis thaliana, UniProt P55826, K173H)
T1 construct: expressed in transfected cells; host or cells: E. coli BL21(DE3) hemG (hemG replaced by CmR), pET24a plasmid
T1 sequence (P55826 35-537 K173H): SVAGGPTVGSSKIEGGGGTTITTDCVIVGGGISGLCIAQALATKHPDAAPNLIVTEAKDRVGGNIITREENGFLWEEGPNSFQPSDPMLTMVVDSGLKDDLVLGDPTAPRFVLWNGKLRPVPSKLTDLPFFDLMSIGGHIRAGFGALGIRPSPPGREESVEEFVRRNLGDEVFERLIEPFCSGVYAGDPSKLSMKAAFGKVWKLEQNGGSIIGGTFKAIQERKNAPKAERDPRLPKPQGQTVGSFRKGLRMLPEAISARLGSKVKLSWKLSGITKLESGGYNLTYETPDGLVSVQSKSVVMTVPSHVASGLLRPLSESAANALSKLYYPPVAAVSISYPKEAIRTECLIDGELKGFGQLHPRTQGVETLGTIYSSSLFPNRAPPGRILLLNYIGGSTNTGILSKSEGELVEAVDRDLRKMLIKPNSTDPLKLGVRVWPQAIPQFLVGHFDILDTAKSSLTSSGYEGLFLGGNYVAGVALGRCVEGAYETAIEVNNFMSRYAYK
How it was run: (§1)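 Variant plasmids were transformed into hemG-null BL21(DE3) and precultured 24 h with hematin. Washed cells were diluted 1:100 into Terrific broth containing 0.1 mM IPTG and herbicide (6.25 ppm 0 or E; 0.78 ppm B) or DMSO. After 24 h at 37° C, OD600 gave percent inhibition.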

AtPPO1 V365L = target: T2, AtPPO1 V365L (Arabidopsis thaliana, UniProt P55826, V365L)
T2 construct: expressed in transfected cells; host or cells: E. coli BL21(DE3) hemG (pET24a, T7 promoter)
T2 sequence (P55826 35-537 V365L): T1 sequence (P55826 35-537 K173H) with H139K, V331L
How it was run: as §1

AtPPO1 G481D = target: T3, AtPPO1 G481D (Arabidopsis thaliana, UniProt P55826, G481D)
T3 construct: expressed in transfected cells; host or cells: E. coli BL21(DE3) hemG, pET24a plasmid
T3 sequence (P55826 35-537 G481D): T1 sequence (P55826 35-537 K173H) with H139K, G447D
How it was run: as §1

AtPPO1 V198W = target: T4, AtPPO1 V198W (Arabidopsis thaliana, UniProt P55826, V198W)
T4 construct: expressed in transfected cells; host or cells: E. coli BL21(DE3) hemG (hemG replaced by CmR), pET24a plasmid
T4 sequence (P55826 35-537 V198W): T1 sequence (P55826 35-537 K173H) with H139K, V164W
How it was run: as §1

| SMILES | inhibition at 0.78 ppm (AtPPO1 K173H) | inhibition at 0.78 ppm (AtPPO1 V365L) | inhibition at 0.78 ppm (AtPPO1 G481D) | inhibition at 0.78 ppm (AtPPO1 V198W) | inhibition at 6.25 ppm (AtPPO1 K173H) | inhibition at 6.25 ppm (AtPPO1 V365L) | inhibition at 6.25 ppm (AtPPO1 G481D) | inhibition at 6.25 ppm (AtPPO1 V198W) |
| --- | --- | --- | --- | --- | --- | --- | --- | --- |
| C#CCN1C(=O)C(F)(F)Oc2cc(F)c(-n3c(=O)n(C)c(=S)n(C)c3=O)cc21 [Herbicide B, trifludimoxazin] | 29% | 11% | 40% | 30% |  |  |  |  |
| CCOC(=O)[C@]1(C)CC(c2cc(-n3c(=O)n(C)c(=S)n(C)c3=O)c(F)cc2Cl)=NO1 [Herbicide D, ethyl (5S)-3-[2-chloro-5-(3,5-dimethyl-2,6-dioxo-4-thioxo-1,3,5-triazinan-1-yl)-4-fluoro-phenyl]-5-methyl-4H-isoxazole-5-carboxylate] |  |  |  |  | 34% | 55% | 20% | 47% |
| CC(C)N(C)S(=O)(=O)NC(=O)c1cc(-n2c(=O)cc(C(F)(F)F)n(C)c2=O)c(F)cc1Cl [Herbicide E, saflufenacil] |  |  |  |  | 55% | 27% | 16% | 51% |
